# Measured values published in patent US11253525B2, “Inhibitors of indoleamine 2,3-dioxygenase and methods of their use” (BRISTOL-MYERS SQUIBB COMPANY, priority 2018, dated 2022).
# Target: T1, indoleamine 2,3-dioxygenase (IDO) (Homo sapiens, UniProt P14902)
# T1 construct: replaced with media containing IFNγ (#285-IF/CF, R&D Systems) at a final concentration of 25 ng/mL; endogenous in cells; host or cells: HeLa (ATCC CCL-2), IFN-gamma stimulated
# Experiment: HeLa cell-based indoleamine 2,3-dioxygenase (IDO) assay, kynurenine production
# Settings: HeLa cells, IFNγ 25 ng/mL, 48 hour incubation; read-out: IDO Hela IC50
# Protocol: Assessment of Inhibitor Activity in HeLa Cell-Based Indoleamine 23-Dioxygenase (IDO) Assay
# Cells were maintained in a humidified incubator at 37° C. in 5% CO2.
# IDO activity was assessed as a function of kynurenine production as follows: HeLa cells were seeded in a 96-well culture plate at a density of 5,000 cells/well and allowed to equilibrate overnight. […] A serial dilution of each test compound was added to the cells in a total volume of 200 μL of culture medium. After a further 48 hour incubation, 170 μL of supernatant was transferred from each well to a fresh 96-well plate. 12.1 μL of 6.1N trichloroacetic acid (#T0699, Sigma-Aldrich) was added to each well and mixed, followed by incubation at 65° C. for 20 minutes to hydrolyze N-formylkynurenine, the product of indoleamine 2,3-dioxygenase, to kynurenine. The reaction mixture was then centrifuged for 10 mins at 500×g to sediment the precipitate. 100 μL of the supernatant was transferred from each well to a fresh 96-well plate. […] Kynurenine concentrations were determined by measuring absorbance at 480 nm and calibrating against an L-kynurenine (#K8625, Sigma-Aldrich) standard curve using a SPECTRAMAX® M2e microplate reader (Molecular Devices). The percentage activity at each inhibitor concentration was determined and IC50 values assessed using nonlinear regression.
# T1 sequence (P14902 whole entry): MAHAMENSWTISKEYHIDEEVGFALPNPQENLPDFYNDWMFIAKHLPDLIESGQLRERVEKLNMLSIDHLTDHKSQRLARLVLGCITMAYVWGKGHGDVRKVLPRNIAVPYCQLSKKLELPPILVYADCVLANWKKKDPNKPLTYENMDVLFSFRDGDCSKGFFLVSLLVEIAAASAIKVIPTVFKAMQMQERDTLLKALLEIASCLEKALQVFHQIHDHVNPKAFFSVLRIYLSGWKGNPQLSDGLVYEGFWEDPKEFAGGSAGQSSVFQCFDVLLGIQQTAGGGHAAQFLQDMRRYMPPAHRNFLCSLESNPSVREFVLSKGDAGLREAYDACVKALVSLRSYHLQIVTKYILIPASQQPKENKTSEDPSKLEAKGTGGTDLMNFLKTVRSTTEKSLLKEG
row,Structure (SMILES),IC50 [nM]
1,"CCOC(c1ccc(C(COC)CC(=O)O)cc1NC(=O)Nc1ccc(C)cc1)C(F)(F)F (single isomer, unassigned) [Example 52]",230
2,"CC[C@H](CC(=O)O)c1ccc([C@@H](OC)C(F)(F)F)c(Nc2cnc(C(F)(F)F)nc2)c1 (single isomer, unassigned) [Example 92]",10
3,"CCO[C@@H](c1ccc([C@H](CC)CC(=O)O)cc1Nc1cnc(OC)nc1)C(F)(F)F (single isomer, unassigned) [Example 33]",30
4,"CC[C@H](CC(=O)O)c1ccc([C@@H](OC)C(F)(F)F)c(Nc2cnc(C)nc2)c1 (relative stereo) [Example 90, (R)-3-(3-((2-methylpyrimidin-5-yl)amino)-4-((R)-2,2,2-trifluoro-1-methoxyethyl)phenyl)pentanoic acid]",150
5,"CCO[C@H](c1ccc([C@@H](CC)CC(=O)O)cc1Nc1cnc(COC)nc1)C(F)(F)F (single isomer, unassigned) [Example 27]",90
6,"CCO[C@@H](c1ccc([C@H](COC)CC(=O)O)cc1Nc1ccc(Cl)cc1)C(F)(F)F (single isomer, unassigned) [Example 72]",10
7,"CCO[C@H](c1ccc([C@@H](CC)CC(=O)O)cc1NC(=O)Nc1ccc(C)cc1)C(F)(F)F (single isomer, unassigned) [Example 19]",580
8,"CCO[C@@H](c1ccc([C@H](COC)CC(=O)O)cc1Nc1cnc(OC)nc1)C(F)(F)F (single isomer, unassigned) [Example 69]",620
9,"CCO[C@H](c1ccc([C@@H](COC)CC(=O)O)cc1NC(=O)Nc1ccc(Cl)cc1F)C(F)(F)F (single isomer, unassigned) [Example 61]",190
10,"CCc1ncc(Nc2cc([C@@H](COC)CC(=O)O)ccc2[C@H](CC)N2CCOCC2)cn1 (relative stereo) [Example 102, (S)-3-(3-((2-ethylpyrimidin-5-yl)amino)-4-((S)-1-morpholinopropyl)phenyl)-4-methoxybutanoic acid]",890
11,"CCO[C@@H](c1ccc([C@H](CC)CC(=O)O)cc1NC(=O)Nc1ccc(C)cc1)C(F)(F)F (single isomer, unassigned) [Example 31]",20
12,"CC[C@H](c1ccc([C@@H](COC)CC(=O)O)cc1Nc1ccc(Cl)cc1)N1CCOCC1 (relative stereo) [Example 110, (S)-3-(3-((4-chlorophenyl)amino)-4-((R)-1-morpholinopropyl)phenyl)-4-methoxybutanoic acid]",380
13,"CCO[C@H](c1ccc([C@H](COC)CC(=O)O)cc1Nc1ccc(C#N)c(F)c1)C(F)(F)F (single isomer, unassigned) [Example 55]",10
14,"CC[C@@H](CC(=O)O)c1ccc([C@H](OC)C(F)(F)F)c(Nc2cnc(C)nc2)c1 (single isomer, unassigned) [Example 98]",150
15,"CCO[C@@H](c1ccc([C@@H](CC)CC(=O)O)cc1Nc1ccc(F)cc1)C(F)(F)F (single isomer, unassigned) [Example 51]",20
16,"CCOc1cnc(Nc2cc([C@H](CC)CC(=O)O)ccc2[C@@H](OCC)C(F)(F)F)cn1 (single isomer, unassigned) [Example 13]",10
17,"CCO[C@@H](c1ccc([C@H](COC)CC(=O)O)cc1NC(=O)Nc1ccc(Cl)cc1F)C(F)(F)F (single isomer, unassigned) [Example 68]",240
18,"CCO[C@H](c1ccc([C@H](CC)CC(=O)O)cc1NC(=O)Nc1ccc(Cl)cc1F)C(F)(F)F (single isomer, unassigned) [Example 9]",10
19,"CCO[C@H](c1ccc([C@H](COC)CC(=O)O)cc1Nc1cnc(OC)nc1)C(F)(F)F (relative stereo) [Example 54, 3-(4-(1-ethoxy-2,2,2-trifluoroethyl)-3-((2-methoxypyrimidin-5-yl)amino)phenyl)-4-methoxybutanoic Acid]",100
20,"CC[C@H](CC(=O)O)c1ccc([C@H](OC)C(F)(F)F)c(Nc2cnc(C(F)(F)F)nc2)c1 (single isomer, unassigned) [Example 96]",10
21,"CC[C@@H](CC(=O)O)c1ccc([C@H](OC)C(F)(F)F)c(Nc2cnc(C(F)(F)F)nc2)c1 (single isomer, unassigned) [Example 100]",10
22,"CCOc1ncc(Nc2cc([C@H](CC)CC(=O)O)ccc2[C@@H](OC)C(F)(F)F)cn1 (single isomer, unassigned) [Example 91]",30
23,"CCOc1ncc(Nc2cc([C@@H](CC)CC(=O)O)ccc2[C@H](CC)N2CCOCC2)cn1 (single isomer, unassigned) [Example 118-2]",430
24,"CCOc1ncc(Nc2cc([C@@H](CC)CC(=O)O)ccc2[C@H](CC)N2CCOCC2)cn1 (single isomer, unassigned) [Example 118-1]",750
25,"CCO[C@@H](c1ccc([C@H](COC)CC(=O)O)cc1Nc1ccc(C#N)c(F)c1)C(F)(F)F (relative stereo) [Example 70, (R)-3-(3-((4-cyano-3-fluorophenyl)amino)-4-((S)-1-ethoxy-2,2,2-trifluoroethyl)phenyl)-4-methoxybutanoic acid]",30
26,"CCO[C@H](c1ccc([C@@H](CC)CC(=O)O)cc1Nc1cnc(OC)cn1)C(F)(F)F (single isomer, unassigned) [Example 25]",10
27,"CCO[C@@H](c1ccc([C@@H](COC)CC(=O)O)cc1Nc1ccc(C#N)c(F)c1)C(F)(F)F (single isomer, unassigned) [Example 77]",30
28,"CCO[C@H](c1ccc([C@@H](COC)CC(=O)O)cc1Nc1ccc(C#N)cc1)C(F)(F)F (single isomer, unassigned) [Example 65]",10
29,"CC[C@H](CC(=O)O)c1ccc([C@@H](CC)N2CCOCC2)c(Nc2ccc(COC)nc2)c1 (relative stereo) [Example 121, (R)-3-(3-((6-(methoxymethyl)pyridin-3-yl)amino)-4-((R)-1-morpholinopropyl)phenyl)pentanoic acid]",30
30,"CCO[C@@H](c1ccc([C@H](CC)CC(=O)O)cc1Nc1cnc(OC)cn1)C(F)(F)F (relative stereo) [Example 36, (R)-3-(4-((S)-1-ethoxy-2,2,2-trifluoroethyl)-3-((5-methoxypyrazin-2-yl)amino)phenyl)pentanoic acid]",30

# Same assay, conditions: HeLa cells, IFNγ 25 ng/mL, 48 hour incubation; read-out: IDO Hela IC50 class (A < 50, B < 250, C < 2000)
row,Structure (SMILES),IC50 [nM]
1,"CC[C@H](CC(=O)O)c1ccc([C@H](OC)C(F)(F)F)c(Nc2ccc(C#N)cc2)c1 (single isomer, unassigned) [Example 93]",< 50
2,"CC[C@H](CC(=O)O)c1ccc([C@@H](OC)C(F)(F)F)c(Nc2ccc(C#N)cc2)c1 (relative stereo) [Example 89, (R)-3-(3-((4-cyanophenyl)amino)-4-((R)-2,2,2-trifluoro-1-methoxyethyl)phenyl)pentanoic acid]",< 50
3,"CC[C@@H](CC(=O)O)c1ccc([C@@H](CC)N2CCOCC2)c(Nc2ccc(COC)nc2)c1 (relative stereo) [Example 131, (S)-3-(3-((6-(methoxymethyl)pyridin-3-yl)amino)-4-((R)-1-morpholinopropyl)phenyl)pentanoic acid]",250 to 2000
4,"CC[C@H](CC(=O)O)c1ccc([C@@H](CC)C2CCOCC2)c(Nc2ccc(COC)nc2)c1 (single isomer, unassigned) [Example 127]",< 50
5,"CCO[C@H](c1ccc([C@@H](CC)CC(=O)O)cc1Nc1ccc(C#N)cc1)C(F)(F)F (single isomer, unassigned) [Example 26]",< 50
6,"CC[C@H](c1ccc([C@@H](COC)CC(=O)O)cc1Nc1ccc(Cl)cc1)N1CCOCC1 (relative stereo) [Example 110, (S)-3-(3-((4-chlorophenyl)amino)-4-((R)-1-morpholinopropyl)phenyl)-4-methoxybutanoic acid]",50 to 250
7,"CC[C@@H](c1ccc([C@@H](COC)CC(=O)O)cc1Nc1ccc(Cl)cc1)N1CCOCC1 (relative stereo) [Example 105, (S)-3-(3-((4-chlorophenyl)amino)-4-((S)-1-morpholinopropyl)phenyl)-4-methoxybutanoic acid]",< 50
8,"CCO[C@@H](c1ccc([C@@H](CC)CC(=O)O)cc1Nc1ccc(F)cc1)C(F)(F)F (single isomer, unassigned) [Example 51]",< 50
9,"CC[C@@H](c1ccc([C@@H](COC)CC(=O)O)cc1Nc1ccc(C#N)cc1)N1CCOCC1 (single isomer, unassigned) [Example 101-1]",< 50
10,"CC[C@H](c1ccc([C@@H](COC)CC(=O)O)cc1Nc1ccc(C#N)cc1)N1CCOCC1 (single isomer, unassigned) [Example 101-2]",250 to 2000
11,"CCc1ncc(Nc2cc([C@H](CC)CC(=O)O)ccc2[C@@H](CC)C2CCOCC2)cn1 (single isomer, unassigned) [Example 126-1]",< 50
12,"CC[C@@H](c1ccc([C@@H](COC)CC(=O)O)cc1Nc1ccc(COC)nc1)N1CCOCC1 (single isomer, unassigned) [Example 104]",250 to 2000
13,"CCO[C@@H](c1ccc([C@H](COC)CC(=O)O)cc1Nc1ncc(F)cn1)C(F)(F)F (single isomer, unassigned) [Example 71]",250 to 2000
14,"CC[C@@H](CC(=O)O)c1ccc([C@@H](OC)C(F)(F)F)c(Nc2ccc(C#N)cc2)c1 (single isomer, unassigned) [Example 85]",< 50
15,"CCO[C@@H](c1ccc([C@H](CC)CC(=O)O)cc1NC(=O)Nc1ccc(Cl)cc1F)C(F)(F)F (single isomer, unassigned) [Example 32]",< 50
